Experimental data: ChEMBL document CHEMBL1201862, “PubChem BioAssay data set” (2004)
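Grown in 96-well plates, cells were treated for 48 hours with each compound at five concentrations. Insufficient inhibition: endpoint recorded as highest concentration tested. Here, GI50 denotes the concentration required for 50% inhibition of growth.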 Active and inactive are the calls of the source. No stated cut-off is given here; in the data, active = GI50 up to about 1.1 µM and inactive = higher.

What was measured:
Assay in all cases: NCI-60 cell line screen, 48 h
SF-295 = system: SF-295
HCT-116 = system: HCT-116
SNB-75 = system: SNB-75
HT-29 = system: HT-29
HL-60 = system: HL-60
MOLT-4 = system: MOLT-4
CCRF-CEM = system: CCRF-CEM
OVCAR-4 = system: OVCAR-4
OVCAR-5 = system: OVCAR-5
HCC 2998 = system: HCC 2998
CAKI-1 = system: CAKI-1
SF-539 = system: SF-539
SNB-19 = system: SNB-19
OVCAR-8 = system: OVCAR-8
OVCAR-3 = system: OVCAR-3
COLO 205 = system: COLO 205
RXF 393 = system: RXF 393

Measured: GI50

COC(=O)/C(=N\NC(N)=O)C(C(=O)C(=O)Nc1ccccc1C(=O)OC)c1nc2ccc(C(=O)c3ccccc3)cc2nc1O (centres undefined)
inactive: SF-295 > 100 µM | HCT-116 > 100 µM | SNB-75 > 100 µM | HT-29 > 100 µM | HL-60 > 100 µM | MOLT-4 > 100 µM | CCRF-CEM > 100 µM | OVCAR-4 > 100 µM | OVCAR-5 > 100 µM | HCC 2998 > 100 µM | CAKI-1 > 100 µM | SF-539 > 100 µM | SNB-19 > 100 µM | OVCAR-8 > 100 µM | OVCAR-3 > 100 µM

CCOC(=O)C(=O)Nc1cccc(Cl)c1C
inactive: SF-295 > 100 µM | HCT-116 > 100 µM | HT-29 > 100 µM | HL-60 > 100 µM | MOLT-4 > 100 µM | CCRF-CEM > 100 µM | OVCAR-4 > 100 µM | COLO 205 > 100 µM | OVCAR-5 > 100 µM | HCC 2998 > 100 µM | CAKI-1 > 100 µM | SF-539 > 100 µM | SNB-19 > 100 µM | RXF 393 > 100 µM | OVCAR-8 > 100 µM | OVCAR-3 > 100 µM

N#CCCN(c1ccc(C=O)cc1)S(=O)(=O)c1ccccc1
inactive: SF-295 > 100 µM | HCT-116 > 100 µM | SNB-75 61.9 µM | HT-29 > 100 µM | HL-60 > 100 µM | MOLT-4 > 100 µM | OVCAR-4 > 100 µM | OVCAR-5 > 100 µM | HCC 2998 > 100 µM | CAKI-1 > 100 µM | SF-539 > 100 µM | SNB-19 > 100 µM | OVCAR-8 > 100 µM | OVCAR-3 > 100 µM

Cn1c(=O)nc2n(-c3ccc(Cl)cc3)c3ccc(Cl)cc3nc-2c1=O
inactive: SF-295 4.88 µM | HCT-116 8.55 µM | SNB-75 1.46 µM | HT-29 8.79 µM | HL-60 2.68 µM | MOLT-4 16.8 µM | CCRF-CEM 13.6 µM | OVCAR-5 16.1 µM | HCC 2998 7.76 µM | CAKI-1 4.45 µM | SNB-19 > 10 µM | RXF 393 2.04 µM | OVCAR-8 3.98 µM | OVCAR-3 2.57 µM

CCN(CC)CCn1c2c3ccccc3ccc2c2oc(=O)c3ccccc3c21
inactive: SF-295 56.2 µM | HCT-116 88.5 µM | SNB-75 15.9 µM | HT-29 > 100 µM | HL-60 > 100 µM | CCRF-CEM > 100 µM | OVCAR-4 28.1 µM | COLO 205 > 100 µM | OVCAR-5 > 100 µM | CAKI-1 > 100 µM | SF-539 22.6 µM | SNB-19 80 µM | OVCAR-8 > 100 µM | OVCAR-3 > 100 µM

CCN(CC)CCNC(=O)c1ccccc1NC(=O)C(=O)Nc1ccccc1C(=O)NCCN(CC)CC
inactive: SF-295 42.5 µM | HCT-116 17.5 µM | SNB-75 47 µM | HT-29 34.6 µM | HL-60 15.2 µM | MOLT-4 30.2 µM | CCRF-CEM 30.3 µM | OVCAR-4 64.1 µM | COLO 205 14.1 µM | OVCAR-5 94 µM | HCC 2998 32.5 µM | CAKI-1 > 100 µM | SF-539 24.1 µM | SNB-19 > 100 µM | OVCAR-8 > 100 µM | OVCAR-3 62.7 µM

COS(=O)(=O)OCCC(NC(=O)OCc1ccccc1)C(=O)OCc1ccccc1 (centres undefined)
inactive: SF-295 > 100 µM | HCT-116 > 100 µM | SNB-75 71.6 µM | HT-29 59.2 µM | HL-60 53.3 µM | MOLT-4 > 100 µM | CCRF-CEM > 100 µM | OVCAR-4 > 100 µM | COLO 205 > 100 µM | OVCAR-5 > 100 µM | HCC 2998 66.4 µM | CAKI-1 > 100 µM | SF-539 > 100 µM | SNB-19 > 100 µM | OVCAR-8 > 100 µM | OVCAR-3 > 100 µM

O=C(N/N=C/c1cccc(O)c1O)N/N=C/c1cccc(O)c1O
inactive: SF-295 17.9 µM | HCT-116 5.02 µM | SNB-75 8.77 µM | HT-29 44.8 µM | MOLT-4 5.38 µM | CCRF-CEM 3.5 µM | OVCAR-4 28.2 µM | COLO 205 > 100 µM | OVCAR-5 22.2 µM | SF-539 4.92 µM | SNB-19 30.2 µM | RXF 393 19 µM | OVCAR-8 16.6 µM | OVCAR-3 2.51 µM

O=c1cc(-c2ccccc2)c2cc3c(=O)ccoc3cc2o1
inactive: SF-295 42.8 µM | HCT-116 > 100 µM | SNB-75 14 µM | HT-29 > 100 µM | HL-60 > 100 µM | MOLT-4 > 100 µM | CCRF-CEM 48.1 µM | OVCAR-4 > 100 µM | COLO 205 > 100 µM | HCC 2998 > 100 µM | SF-539 > 100 µM | SNB-19 64.4 µM | RXF 393 20 µM | OVCAR-8 > 100 µM | OVCAR-3 > 100 µM

COc1cc(-c2ccc(NC(=O)SCCC(=O)O)cc2OC)ccc1NC(=O)SCCC(=O)O
inactive: SF-295 > 100 µM | HCT-116 > 100 µM | SNB-75 65.3 µM | HT-29 > 100 µM | HL-60 24.9 µM | MOLT-4 > 100 µM | CCRF-CEM 98.2 µM | OVCAR-4 > 100 µM | COLO 205 > 100 µM | OVCAR-5 > 100 µM | CAKI-1 > 100 µM | SF-539 > 100 µM | SNB-19 > 100 µM | RXF 393 > 100 µM | OVCAR-8 > 100 µM | OVCAR-3 > 100 µM

CCCCN(CC)C(=O)C(=O)C1C(=O)Nc2ccccc2[S+]1[O-] (centres undefined)
inactive: HCT-116 > 100 µM | SNB-75 > 100 µM | HT-29 > 100 µM | MOLT-4 > 100 µM | CCRF-CEM > 100 µM | OVCAR-4 > 100 µM | COLO 205 > 100 µM | OVCAR-5 > 100 µM | HCC 2998 > 100 µM | CAKI-1 > 100 µM | SF-539 > 100 µM | SNB-19 > 100 µM | RXF 393 > 100 µM | OVCAR-8 > 100 µM | OVCAR-3 > 100 µM

CN(C)CC/C(=N\Nc1ccccc1)c1ccccc1
inactive: SF-295 2.56 µM | HCT-116 12.2 µM | HT-29 2.13 µM | MOLT-4 2.83 µM | OVCAR-4 3.25 µM | COLO 205 17.6 µM | OVCAR-5 14.4 µM | HCC 2998 12.2 µM | CAKI-1 3.18 µM | SF-539 15.8 µM | SNB-19 40.9 µM | RXF 393 31.2 µM | OVCAR-8 4.35 µM | OVCAR-3 13.9 µM

COc1ccc(C2Cc3cc(OC)c(OC)c(OC)c3C2=O)cc1 (centres undefined)
inactive: SF-295 > 100 µM | HCT-116 > 100 µM | SNB-75 47.3 µM | HT-29 > 100 µM | MOLT-4 > 100 µM | CCRF-CEM > 100 µM | OVCAR-4 > 100 µM | COLO 205 > 100 µM | OVCAR-5 > 100 µM | HCC 2998 > 100 µM | CAKI-1 > 100 µM | SF-539 > 100 µM | SNB-19 > 100 µM | OVCAR-8 > 100 µM | OVCAR-3 > 100 µM
